Measurements reported in patent publication US10981932B2, “Macrocyclic indole derivatives” (Bayer Aktiengesellschaft, priority 2016, dated 2021).
Counter-ions that a name gives are not always drawn. Like-named read-outs stand apart in the source and are kept apart here.

Experiments:
[1] = system: MV-4-11; assay: Anti-proliferative effect (CellTiter-Glo, 72 h), MV-4-11; format: cell-based; details: MV-4-11 cells, median, read-out: IC50 antiproliferation assay MV-4-11 [M] (median)
Procedure, shortened: (§1)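 Anti-proliferative activity is derived from ATP-based luminescence (CellTiter-Glo) in cells exposed to compound for 72 h at 37 °C, set against a time zero plate read at seeding.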

[2] = system: SUDHL5; assay: Induction of cytotoxicity (CellTiter-Glo, 5 h), SUDHL5; details: read-out: Cytotox SUDHL5 [M] (median), SUDHL5 cells, cytotoxicity induction, CellTiter-Glo, median
[3] = system: NCI-H1703; assay: Anti-proliferative effect (CellTiter-Glo, 72 h), NCI-H1703; format: cell-based; details: Homo sapiens, NCI-H1703 cells, median, read-out: IC50 antiproliferation assay NCI-H1703 [M] (median)
Description: (§2) The impact of compounds on the proliferation of different cell lines was assessed using the CellTiter-Glo® Luminescent Cell Viability reagent from Promega (G7573). Of note, SUDHL10 and SUDHL5 (DLBCL), NCI-H929 (Multiple Myeloma), A2780 (ovarian carcinoma) as well as MV-4-11(AML) cells are sensitive to MCL-1 inhibition.
(§3) In parallel, cells were plated in a reference (day 0) plate for time zero determination.
(§4) Rim wells were excluded. The cells were incubated for 72 h hours in a humidified incubator at 37° C. The day 0 plate was measured by adding 30 μl/well of CTG solution (CellTiter-Glo® Luminescent Cell Viability reagent, Promega G7573) to time zero wells in the reference plate followed by a 10 minutes incubation and luminescence reading at 0.1 ms, using the PHERAstar FS microplate reader (BMG Labtech).
(§5) After 72 h incubation, the treated plates were measured in the same way as the day 0 plate mentioned above.

[4] = system: SUDHL5; assay: Anti-proliferative effect (CellTiter-Glo, 72 h), SUDHL5; format: cell-based; details: SUDHL5 cells, antiproliferation, median, read-out: Antiproli SUDHL5 [M] (median)
Procedure, shortened: as §1

[5] = system: SK-MEL-2; assay: Anti-proliferative effect (CellTiter-Glo, 72 h), SK-MEL-2; format: cell-based; details: Homo sapiens, SK-MEL-2 cells, median, read-out: IC50 antiproliferation assay SK-MEL-2 [M] (median)
Description: Assessment of the Anti-Proliferative Effect of Compounds in Different Cell Lines
as §2, §3, §4, §5

[6] = system: SUDHL10; assay: Induction of caspase-3/7 activity (Caspase-Glo 3/7), SUDHL10; format: cell-based; details: caspase-3/7 induction, SUDHL10 cells, 3 h treatment; median
Procedure, shortened: (§6)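 Caspase-Glo 3/7 luminescence measured after 3 h compound exposure at 37 °C in SUDHL10 and SUDHL5 cells. EC50 values come from background-corrected signals, with curve bottom set to 1 and plateau set to maximal induction by the reference compound.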

[7] = system: A2780; assay: Anti-proliferative effect (CellTiter-Glo, 72 h), A2780; format: cell-based; details: Homo sapiens, A2780, 72 h, A2780 cells, median, read-out: IC50 antiproliferation assay A2780 [M] (median)
Procedure, shortened: as §1

[8] = system: SUDHL5; assay: Induction of caspase-3/7 activity (Caspase-Glo 3/7), SUDHL5; format: cell-based; details: caspase-3/7 induction, SUDHL5 cells, 3 h treatment; median
Procedure, shortened: as §6

[9] = target: MCL-1 (Homo sapiens, UniProt Q07820); assay: Protein-protein interaction assay MCL-1/Noxa BH3 peptide (MCL-1 assay), TR-FRET; format: binding; details: MBP-MCL-1 / Noxa BH3-derived peptide, median
MCL-1, sequence (Q07820 whole entry): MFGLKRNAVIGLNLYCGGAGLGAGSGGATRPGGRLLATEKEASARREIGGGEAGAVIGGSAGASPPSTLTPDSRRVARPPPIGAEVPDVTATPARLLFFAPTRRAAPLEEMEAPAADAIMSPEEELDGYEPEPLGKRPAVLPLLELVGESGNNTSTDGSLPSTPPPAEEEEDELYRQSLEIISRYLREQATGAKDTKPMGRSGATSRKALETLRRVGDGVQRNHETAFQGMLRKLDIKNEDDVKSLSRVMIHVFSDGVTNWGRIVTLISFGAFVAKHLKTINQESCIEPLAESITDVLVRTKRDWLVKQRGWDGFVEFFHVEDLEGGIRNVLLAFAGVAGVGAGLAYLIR
Procedure, shortened: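 MBP-MCL-1 (1 nM final) was preincubated 10 min at 22 °C with compounds (11 concentrations, 0.1 nM–20 μM, duplicates) in Tris pH 7 buffer with NaCl, KF, Tween-20, DTT and BGG. After 1 h at 22 °C in the dark plus overnight at 4 °C, anti-MBP Eu-cryptate/streptavidin-XL665 TR-FRET was read; IC50 came from a 4-parameter fit.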

[10] = system: SUDHL10; assay: Induction of cytotoxicity (CellTiter-Glo, 5 h), SUDHL10; details: read-out: Cytotox SUDHL10 [M] (median), SUDHL10 cells, cytotoxicity induction, CellTiter-Glo, median
[11] = system: SUDHL10; assay: Anti-proliferative effect (CellTiter-Glo, 72 h), SUDHL10; format: cell-based; details: SUDHL10 cells, antiproliferation, 72 h incubation, median, read-out: Antiproli SUDHL10 [M] (median)
Procedure, shortened: as §1

Structure (SMILES) | IC50 ([1]; Homo sapiens, MV4-11, 72 h) [M] | IC50 ([2]; 5 h incubation) [M] | IC50 [3] [M] | IC50 ([4]; 72 h incubation) [M] | IC50 [5] [M] | EC50 [6] [nM] | IC50 [7] [M] | EC50 [8] [nM] | IC50 [9] [nM] | IC50 ([10]; 5 h incubation) [M] | IC50 [1] [M] | IC50 ([2]; 5 h) [M] | IC50 ([4]; 72 h) [M] | IC50 ([10]; 5 h) [M] | IC50 [11] [M]
CCc1nn(C)c2c1-c1c(C)ccc3c(CCCOc4cccc5cc(F)ccc45)c(C(=O)O)n(c13)CCCCOC2 (single isomer, unassigned) [Example 267, (+)-3-ethyl-7-{3-[(6-fluoronaphthalen-1-yl)oxy]propyl}-1,4-dimethyl-1,10,11,12,13,15-hexahydropyrazolo[4′,3′:9,10][1,6]oxazacycloundecino[8,7,6-hi]indole-8-carboxylic Acid] | 7.02e-06 | 1.11e-06 | 1.36e-05 | 1.89e-06 | 2e-05 | 4600 | 2.15e-05 | 1140 | 0.37 | 3.66e-06 | – | – | – | – | –
CCc1c2c(nn1C)COCCCCn1c(C(=O)O)c(CCCOc3cccc4cc(F)ccc34)c3cccc-2c31 (single isomer, unassigned) [Example 282, (+)-3-ethyl-7-{3-[(6-fluoronaphthalen-1-yl)oxy]propyl}-2-methyl-2,10,11,12,13,15-hexahydropyrazolo[4′,3′:9,10][1,6]oxazacycloundecino[8,7,6-hi]indole-8-carboxylic acid-N-ethylethanamine Salt] | – | 6.16e-07 | 4.85e-06 | 5.78e-07 | 1.25e-05 | 906 | 8.66e-06 | 385 | 1.09 | 7.8e-07 | 3.69e-06 | – | – | – | –
Cc1c2c(nn1CCN1CCOCC1)COCCCCn1c(C(=O)O)c(CCCOc3cccc4cc(F)ccc34)c3cccc-2c31 (single isomer, unassigned) [Example 285, (+)-7-{3-[(6-fluoronaphthalen-1-yl)oxy]propyl}-3-methyl-2-[2-(morpholin-4-yl)ethyl]-2,10,11,12,13,15-hexahydropyrazolo[4′,3′:9,10][1,6]oxazacycloundecino[8,7,6-hi]indole-8-carboxylic acid-N-ethylethanamine Salt] | – | 7.5e-07 | 6.98e-06 | 9.39e-07 | 1.09e-05 | 1410 | 1.22e-05 | 646 | 0.782 | 2.81e-06 | 3.61e-06 | – | – | – | –
CCc1nn(C)c2c1-c1cccc3c(CCCOc4cccc5cc(F)ccc45)c(C(=O)O)n(c13)CCCCOC2 (single isomer, unassigned) [Example 288, (+)-3-ethyl-7-{3-[(6-fluoronaphthalen-1-yl)oxy]propyl}-1-methyl-1,10,11,12,13,15-hexahydropyrazolo[4′,3′:9,10][1,6]oxazacycloundecino[8,7,6-hi]indole-8-carboxylic Acid] | 9.86e-06 | – | 1.76e-05 | – | > 3.3e-05 | 5850 | > 3.3e-05 | 1570 | 1.49 | – | – | 1.68e-06 | 1.54e-06 | 6.54e-06 | –
CCc1nn(CCN2CCOCC2)c2c1-c1cccc3c(CCCOc4cccc5ccccc45)c(C(=O)O)n(c13)CCCCOC2 (single isomer, unassigned; enantiomer 1) [Example 199, 3-ethyl-1-[2-(morpholin-4-yl)ethyl]-7-[3-(naphthalen-1-yloxy)propyl]-1,10,11,12,13,15-hexahydropyrazolo[4′,3:9,10][1,6]oxazacycloundecino[8,76-hi]indole-8-carboxylic Acid (Enantiomer 1)] | 7.51e-06 | 9.25e-07 | 1.46e-05 | 1.65e-06 | 2.9e-05 | 3460 | 1.57e-05 | 899 | 1.26 | 2.92e-06 | – | – | – | – | 1.13e-06
